According to patent US10736968B2, “Cellular signalling inhibitors, their formulations and methods thereof” (INVICTUS ONCOLOGY PVT. LTD., priority 2016, dated 2020):

Tests used:
[1] = system: AKT-mTOR-p70S6K pathway; experiment: Downstream signaling in macrophages after drug washout and MCSF exposure (Western blot); format: cell-based; conditions: 4 hours drug, washout 7 h or 48 h, MCSF 2 h
[2] = system: macrophages; experiment: Repolarization of IL4-skewed M2 macrophages to M1-like state after washout (FACS); format: cell-based; conditions: IL4 24 hours, inhibitor 4 hours, washed, fresh media 12-72 hours
Method: Activity Studies of Compound of Formula I • Efficacy of BLN101 vs BLZ945 on the ability to inhibit CSF1R in vitro is studied. RAW264.7 cells are treated with BLZ945 (67 nM) or BLN101 (67 nM) for different time points, at the end of which the cells were exposed to CSF1 (10 ng/ml) for 20 min. The cells were then lysed and analyzed for phosphorylated CSF1R levels. […] Efficacy of BLN101 (in formulation AK750) vs BLZ945 on increase in iNOS expression in vitro is studied. It is observed that exposure to Tumor Conditioned Media over 24 h decreases INOS levels. Measurement of the expression of iNOS in RAW264.7 cells at different time points after treatment with B-16-tumour conditioned media followed by BLZ-945 or BLN101 (as AK750 formulation) treatment across different time points. […] Treatment of monocytes with IL4 is known to facilitate the differentiation of monocytes into macrophages. Further, activation of CSF1R skews it to a M2 phenotype. […] At different time points analysis of the cells for expression of markers CD11b+CD206+, CD11b+MHC-II+, CD11b+CD86+ and CD11b+CD80+ on the cells using flow cytometry. […] (FIG. 4). […] At different time-points, the cells are harvested and analyzed the population for M1 (MHCII+, CD86+, CD80+) or M2 (CD206+) markers using fluorescence activated cell sorting (FIG. 5d). […]

CNC(=O)c1cc(Oc2ccc3nc(N[C@@H]4CCCC[C@H]4O)sc3c2)ccn1 [BLZ-945]
AKT-mTOR-p70S6K downstream signaling [1]: not by BLZ945 and PLX3397 | M1 markers (MHCII+, CD86+, CD80+) [2]: did not increase the M1 markers | M2 phenotype (CD206+) [2]: at early time-points is observed, but this effect was lost at later time points
